Consider one compound from patent publication US11255806B2, “Interdigitated electrodes for in vitro analysis of cells” (UNIVERSITY OF CENTRAL FLORIDA RESEARCH FOUNDATION, INC., priority 2017, dated 2022).

Several values for one entry are separate records, joined by “and”; a condition that tells them apart may be missing. Equal values may be shown once.

This series deals with iPSC cardiomyocytes (iCell Cardiomyocytes^2). The series is described as follows: Model drug (norepinephrine) cardiotoxicity experiment: impedance / cell index on nIDEs with cultured iPSC cardiomyocytes. Type of series: cell-based, Human.

Consider `NC[C@H](O)c1ccc(O)c(O)c1` [norepinephrine], for which the “change of CI and % CI with norepinephrine concentration” value (0 μM to 250 μM, N=6, FIG. 24) was “both decrease as the concentration of norepinephrine increases”. Also, the “percent cell index (% CI)” value (at 256 μm norepinephrine, mean of N=7, 86.91% at 0 μM, FIG. 24) was 48.88%. Besides, the “cell index (CI)” value (at 256 μm norepinephrine, mean of N=7, CI=2.34 at 0 μM, FIG. 23) is recorded as 1.13. For the same compound, the “cellular index (CI) after increased concentrations of norepinephrine” value (summary statement, concentration not given, decrease from 2.34 / 2.3) is 1.13 and 1.
